A short description of data set [1]: Solubility in aqueous solution, noted during coupling. The data set is classed as physicochemical. The following applies: methanol used as solvent instead. The procedure:
1: 6 mg Compound C was dissolved in 2 ml methanol in 50 ml centrifuge tube (methanol was used because Compound C is insoluble in aqueous solution).

The subject of data set [2] is PDEIV. Kind of data set: PDEIV inhibition (IC50). In kind it is biochemical. The conditions noted are these: PDEIV inhibitory activity.

Structures are written as SMILES. pIC50: −log10 of the molar value.

For orientation: pIC50 means −log10 of the IC50, conventionally taken in molar units. Low values mean a large IC50, high ones a small IC50. `COc1ccc(Cn2cncc3nc(C(C)C)nc2-3)cc1OC1CCCC1` [Compound C, 3-(3-cyclopentyloxy-4-methoxybenzyl)-8-isopropyl-3H-purine]: in data set [1], the “solubility in aqueous solution” value is on record as “insoluble”. In addition, in data set [2], the pIC50 was 6.10.

In data set [2], `CCNc1ncn(Cc2ccc(OC)c(OC3CCCC3)c2)c2nc(C(C)C)nc1-2` [Compound A, 3-(3-cyclopentyloxy-4-methoxybenzyl)-6-ethylamino-8-isopropyl-purine] showed a pIC50 of 6.39. Still for that read-out and setting: to `COc1ccc(C2CNC(=O)C2)cc1OC1CCCC1` (stereo not shown) [rolipram, reference compound] belongs 5.52.

The values above are taken from US20020028469A1, “Method of defining genus of chemical compound and method of designing molecules” (priority 1997, published 2002).
